Measured values published in patent US8697149B2, “Extracts and compounds from “Tulbaghia violacea” and their use as biological plant protecting agents” (Agrarforum AG, priority 2005, dated 2014).
Several values for one entry are separate records, joined by “and”; a condition that tells them apart may be missing. Equal values may be shown once.

Assays:
Fusarium oxysporum = assay: in vitro mycelial growth inhibition, modified agar dilution method
[1] = test system: covered kernel smut (Sporisorium sorghi); assay: field trial, sorghum seed treatment against covered kernel smut; type: in vivo, Sporisorium sorghi on sorghum; settings: sorghum seed inoculated with covered kernel smut spores; extract 2.0 g/l, Thiram 0.25% (w/w); field conditions
[2] = test system: loose kernel smut (Sporisorium cruentum); assay: field trial, sorghum seed treatment against loose kernel smut; type: in vivo, Sporisorium cruentum on sorghum; settings: sorghum seed inoculated with loose kernel smut spores; extract 2.0 g/l, Thiram 0.25% (w/w); field conditions
[3] = aerial part compounds after P-TLC separation
[4] = below soil part compounds after P-TLC separation

Compound | % inhibition (mycelial growth of F. oxysporum) (Fusarium oxysporum; [3]) | % inhibition (mycelial growth of F. oxysporum) (Fusarium oxysporum; [4]) [%] | further results
CSCSCSC [Compound A6.1, 2,4,6-Trithiaheptane] | 85% | – | –
CN(C)C(=S)SSC(=S)N(C)C [Thiram] | – | – | Yield [1]: 4.8 ± 0.6a ton ha^−1; Yield [2]: 3.9 ± 1.3a ton ha^−1
2,4-Dithiapentane [Compound A7.1] | 87% | – | –
CSCSSSCSC [Compound B3.2, 2,4,5,6,8-Pentathianonane] | – | 72 | –
Methylthiosulphonate [Compound A7.2] | 50% and 52% | – | –
CSCSSCSC [Compound B2.2, 2,4,5,7-Tetrathiaoctane] | – | 87 | –
